Assay: Decomposition products of NK-104 and fluvastatin in aqueous solution of pH 3, analyzed by HPLC
Format: physicochemical
Settings: aqueous solution pH 3, 40° C.
Protocol: Decomposition products of NK-104 were analyzed by HPLC after incubation for two days at 40° C. in aqueous solution of pH 3. […] The decomposition products of fluvastatin were also analyzed for comparison.
The conditions under which NK-104 and Fluvastatine decomposition products were analyzed are as follows:
HPLC system: Type LC-10 (Shimadz, Japan)
Column: DEVELOSIL ODS-HG-5 (NOMURA CHEM., Japan)
Mobil Phase: MeOH/0.02 mol/L phosphate buffer (pH 3)=7/3
Sample: NK-104 or fluvastatin/pH 3/40° C., 2 days
Detector: SPD-MLOAVP, UV 245 mm

O=C(O)C[C@H](O)C[C@H](O)/C=C/c1c(C2CC2)nc2ccccc2c1-c1ccc(F)cc1 [NK-104, (E)-3,5-dihydroxy-7-[4′-4 ″-fluorophehyl-2 ′-cyclopropyl-quinolin-3′-yl]-6-heptenoic acid]
Quantity of decomposition products (2 days): a small quantity of one type of decomposition product
Decomposition products (types) (two days): a single product, a lactonized form of NK-104

From patent US6465477B1, “Stable pharmaceutical composition” (Kowa Company, Ltd., priority 1997, dated 2002)
